SMILES strings stand for the structures.

In assay [1] the test system is A2780 ovarian cells. In words: A2780 ovarian cell proliferation assay in lipid reduced medium, with palmitate (MTT). Format: cell-based. The conditions noted are these: Homo sapiens, A2780, 96 h; read-out: pIC50 A2780 Ovarian Cell, With Palmitate (converted). The method in brief:
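Seeded cells were switched next day to lipid-reduced serum, exposed to compound and 25 μM palmitate complexed with fatty-acid-free BSA, and incubated 96 h. Proliferation was then determined by MTT absorbance at 544 nm, with a best-fit curve of signal against concentration.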

The subject of assay [2] is PC-3M-Luc-C6 prostate cells. Put plainly: In vitro PC-3M-Luc-C6 prostate cell proliferation assay in lipid reduced medium. Type of assay: cell-based. The conditions noted are these: 96 h, read-out: pIC50 PC-3M-Luc-C6 prostate cell (converted).
In assay [3] the test system is A2780 ovarian cells. Put plainly: A2780 ovarian cell proliferation assay in lipid reduced medium, without palmitate (MTT). Format: cell-based. The conditions noted are these: Homo sapiens, A2780, 96 h; read-out: pIC50 A2780 Ovarian Cell, Without Palmitate (converted).
Assay [4] deals with T1, hFASN enzyme (full length) (Homo sapiens, UniProt P49327).
T1 construct: 10 μL hFASN enzyme (full length, 300 ng, purified in house); made in house
Put plainly: Fatty Acid Synthase (FASN) inhibition scintillation proximity assay. Format: biochemical. The conditions noted are these: for inhibition at 10 µM: read-out: Human FASN % inhibition @ 10 μM, 10 μM test compound; for IC50: read-out: Human FASN pIC50 (converted). The method, boiled down:
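Purified full-length hFASN (300 ng) converts ^3H-acetyl-CoA plus malonyl-CoA to ^3H-palmitate in 100 mM KH2PO4 pH 7.5, 1 mM DTT; compounds tested at 0.01–30 μM. Product captured on streptavidin imaging beads and read by LEADseeker at 610 nm after ≥24 h; 4-parameter logistic fit versus controls.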
A general note: Scintillation proximity formats need no separation of bound from free tracer.

The target of assay [5] is Fatty Acid Synthase Keto-reductase Domain (FASN KR) (Homo sapiens, UniProt P49327). Put plainly: Fatty Acid Synthase keto-reductase domain (FASN KR) inhibition, NADPH oxidation at 340 nm.
Experimental: After 20 minutes incubation at room temperature the plate was measured again (T2).
The decrease in absorbance was calculated as (Absorbance before incubation T1)−(Absorbance following incubation T2).
A plot of Controlmin versus test compound concentration was fitted to a 4-parameter logistic curve using a non-linear least squares regression method.
Assay [6] concerns LNCaP-Vancouver prostate cells. Put plainly: In vitro LNCaP Vancouver prostate cell proliferation assay in lipid reduced medium. Format: cell-based. The conditions noted are these: read-out: pIC50 LNCaP_Vancouver prostate cell (converted).

T1 sequence (P49327 whole entry): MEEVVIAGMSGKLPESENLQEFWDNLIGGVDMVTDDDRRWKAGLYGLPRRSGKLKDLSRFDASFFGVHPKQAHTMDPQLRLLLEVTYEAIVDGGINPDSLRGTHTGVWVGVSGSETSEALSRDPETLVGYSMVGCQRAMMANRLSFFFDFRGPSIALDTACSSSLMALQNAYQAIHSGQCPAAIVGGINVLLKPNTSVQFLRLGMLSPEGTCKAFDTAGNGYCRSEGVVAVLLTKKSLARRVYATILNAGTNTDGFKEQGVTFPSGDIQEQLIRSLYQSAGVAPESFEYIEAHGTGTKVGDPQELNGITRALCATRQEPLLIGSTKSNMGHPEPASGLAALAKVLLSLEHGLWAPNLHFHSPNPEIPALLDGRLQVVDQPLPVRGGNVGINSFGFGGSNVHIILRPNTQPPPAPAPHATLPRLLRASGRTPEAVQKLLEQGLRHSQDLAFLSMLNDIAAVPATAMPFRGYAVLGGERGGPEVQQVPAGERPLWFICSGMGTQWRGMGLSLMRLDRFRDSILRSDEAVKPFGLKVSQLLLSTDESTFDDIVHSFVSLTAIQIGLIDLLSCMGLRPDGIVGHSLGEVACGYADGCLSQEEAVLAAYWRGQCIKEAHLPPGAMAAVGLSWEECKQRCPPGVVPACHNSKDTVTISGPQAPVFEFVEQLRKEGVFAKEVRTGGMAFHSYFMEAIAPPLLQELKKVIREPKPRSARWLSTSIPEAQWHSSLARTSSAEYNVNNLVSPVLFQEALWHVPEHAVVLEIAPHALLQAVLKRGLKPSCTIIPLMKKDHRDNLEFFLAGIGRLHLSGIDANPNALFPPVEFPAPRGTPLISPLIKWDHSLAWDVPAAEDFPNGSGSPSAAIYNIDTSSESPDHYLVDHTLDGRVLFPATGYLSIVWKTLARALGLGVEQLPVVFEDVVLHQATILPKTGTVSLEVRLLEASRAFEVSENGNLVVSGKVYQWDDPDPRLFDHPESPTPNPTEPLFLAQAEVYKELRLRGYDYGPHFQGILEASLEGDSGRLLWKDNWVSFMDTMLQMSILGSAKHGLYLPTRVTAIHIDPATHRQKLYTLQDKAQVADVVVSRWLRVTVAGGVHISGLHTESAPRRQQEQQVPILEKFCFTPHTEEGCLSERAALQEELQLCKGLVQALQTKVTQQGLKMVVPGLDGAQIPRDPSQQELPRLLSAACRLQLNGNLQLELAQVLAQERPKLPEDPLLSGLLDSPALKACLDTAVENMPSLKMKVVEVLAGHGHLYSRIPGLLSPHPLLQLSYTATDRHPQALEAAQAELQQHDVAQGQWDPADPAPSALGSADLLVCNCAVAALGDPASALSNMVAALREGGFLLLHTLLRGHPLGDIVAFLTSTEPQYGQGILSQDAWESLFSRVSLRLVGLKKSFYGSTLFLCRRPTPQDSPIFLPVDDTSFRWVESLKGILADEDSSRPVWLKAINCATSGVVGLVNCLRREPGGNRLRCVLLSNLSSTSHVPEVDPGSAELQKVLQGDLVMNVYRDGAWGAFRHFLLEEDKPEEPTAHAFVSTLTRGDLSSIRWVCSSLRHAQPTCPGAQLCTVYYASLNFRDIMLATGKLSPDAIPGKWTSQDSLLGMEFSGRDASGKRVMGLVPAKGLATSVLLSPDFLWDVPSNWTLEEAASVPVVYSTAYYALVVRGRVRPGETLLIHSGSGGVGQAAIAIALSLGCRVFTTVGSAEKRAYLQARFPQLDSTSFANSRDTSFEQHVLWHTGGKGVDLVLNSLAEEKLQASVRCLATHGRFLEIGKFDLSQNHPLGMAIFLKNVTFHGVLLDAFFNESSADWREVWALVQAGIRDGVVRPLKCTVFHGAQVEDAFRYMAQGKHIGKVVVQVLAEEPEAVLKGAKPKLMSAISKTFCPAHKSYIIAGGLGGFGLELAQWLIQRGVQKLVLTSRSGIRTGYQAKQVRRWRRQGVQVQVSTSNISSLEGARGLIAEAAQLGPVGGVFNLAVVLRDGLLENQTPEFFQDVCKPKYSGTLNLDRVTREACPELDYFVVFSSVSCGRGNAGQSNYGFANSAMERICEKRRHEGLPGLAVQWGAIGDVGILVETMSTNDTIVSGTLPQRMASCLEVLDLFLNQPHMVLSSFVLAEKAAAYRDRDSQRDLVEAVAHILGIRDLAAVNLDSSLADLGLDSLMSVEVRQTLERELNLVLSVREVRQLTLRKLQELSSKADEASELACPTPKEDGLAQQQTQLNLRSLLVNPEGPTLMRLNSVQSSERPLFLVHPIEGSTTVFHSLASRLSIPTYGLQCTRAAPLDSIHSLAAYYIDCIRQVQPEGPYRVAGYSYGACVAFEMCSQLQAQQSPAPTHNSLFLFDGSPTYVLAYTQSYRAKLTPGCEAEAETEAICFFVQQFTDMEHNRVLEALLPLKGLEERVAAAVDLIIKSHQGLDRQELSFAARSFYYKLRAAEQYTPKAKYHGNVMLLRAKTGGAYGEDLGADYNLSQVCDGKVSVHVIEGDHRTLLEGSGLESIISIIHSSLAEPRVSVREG
Sequence of Fatty Acid Synthase Keto-reductase Domain (FASN KR) (P49327 whole entry, the tested form may be a part): as the sequence (P49327 whole entry) above

For orientation: inhibition means the drop in the measured response relative to a control, in per cent. On to `Cc1cc(-c2ccc3c(cnn3C)c2)ccc1C1=NC2(CC2)C(=O)N1CC1CN(C(=O)N(C)C)C1` [compound 488, N,N-Dimethyl-3-({5-[2-methyl-4-(1-methyl-1H-indazol-5-yl)phenyl]-7-oxo-4,6-diazaspiro[2.4]hept-4-en-6-yl}methyl)azetidine-1-carboxamide], for which the IC50 was more than 10000 nM with A2780 ovarian cells [1]; 575 nM in assay [2]; 302 nM with A2780 ovarian cells [3]; 214 nM in assay [4]; 501 nM in assay [5]; 1550 nM in assay [6]. Also, the inhibition at 10 µM in assay [4] was 88%.

As for `Cn1nc(C#N)c2ccc(-c3ccc(C4=NC5(CC5)C(=O)N4C[C@@H]4CCN(C(=O)C5CC5)C4)cc3)cc21` [compound 493, 6-[4-(6-{[(3R)-1-(Cyclopropylcarbonyl)pyrrolidin-3-yl]methyl}-7-oxo-4,6-diazaspiro[2.4]hept-4-en-5-yl)phenyl]-1-methyl-1H-indazole-3-carbonitrile], the IC50 in the assay with A2780 ovarian cells [1] was more than 10000 nM; in assay [2], 158 nM; with A2780 ovarian cells [3], approximately 209 nM; in assay [4], 166 nM; in assay [5], 427 nM; in assay [6], 1260 nM. Besides, the inhibition at 10 µM in assay [4] is 98%.

On to `NC(=O)c1cccc(-c2ccc(C3=NC4(CC4)C(=O)N3C[C@@H]3CCN(C(=O)C4CC4)C3)cc2)c1` [compound 494, 4′-(6-{[(3R)-1-(Cyclopropylcarbonyl)pyrrolidin-3-yl]methyl}-7-oxo-4,6-diazaspiro[2.4]hept-4-en-5-yl)biphenyl-3-carboxamide], for which the IC50 is more than 10000 nM in the assay on A2780 ovarian cells [1]; 891 nM in assay [2]; 692 nM in the assay with A2780 ovarian cells [3]; 219 nM in assay [4]; 661 nM in assay [5]; 4680 nM in assay [6]. Also, the inhibition at 10 µM in assay [4] turned out to be 95%.

For the molecule `Cc1cc(-c2ccc3c(cnn3C)c2)ccc1C1=NC2(CC2)C(=O)N1CC1CN(C(=O)C(C)(C)O)C1` [compound 495, 6-{[1-(2-Hydroxy-2-methylpropanoyl)azetidin-3-yl]methyl}-5-[2-methyl-4-(1-methyl-1H-indazol-5-yl)phenyl]-4,6-diazaspiro[2.4]hept-4-en-7-one], the IC50 in the assay with A2780 ovarian cells [1] is more than 10000 nM; in assay [2], approximately 589 nM; in the assay with A2780 ovarian cells [3] it was 275 nM; in assay [4] it was 257 nM; in assay [5], 724 nM; in assay [6], approximately 3240 nM. The inhibition at 10 µM in assay [4] was 95%.

Consider `Cc1cc(-c2ccc3c(cnn3C)c2)ccc1C1=NC2(CC2)C(=O)N1CC1CN(C(=O)C2(C)COC2)C1` [compound 496, 5-[2-Methyl-4-(1-methyl-1H-indazol-5-yl)phenyl]-6-({1-[(3-methyloxetan-3-yl)carbonyl]azetidin-3-yl}methyl)-4,6-diazaspiro[2.4]hept-4-en-7-one], for which the IC50 with A2780 ovarian cells [1] was more than 10000 nM; in assay [2], approximately 355 nM; in the assay on A2780 ovarian cells [3] it was 209 nM; in assay [4], 302 nM; in assay [5], 575 nM; in assay [6], 1740 nM. In addition, the inhibition at 10 µM in assay [4] amounted to 94%.

As for `Cc1cc(-c2ccc(C3=NC4(CC4)C(=O)N3CC3CN(C(=O)C4CC4)C3)c(F)c2)cc2cnn(C)c12` [compound 520, 6-{[1-(Cyclopropylcarbonyl)azetidin-3-yl]methyl}-5-[4-(1,7-dimethyl-1H-indazol-5-yl)-2-fluorophenyl]-4,6-diazaspiro[2.4]hept-4-en-7-one], the IC50 in the assay with A2780 ovarian cells [1] was more than 10000 nM; in assay [2], 501 nM; in the assay with A2780 ovarian cells [3] it was 389 nM; in assay [4] it was 427 nM; in assay [5], 631 nM; in assay [6], 2570 nM. Further, in assay [4], the inhibition at 10 µM worked out at 97%.

Turning to `CCn1ncc2cc(-c3ccc(C4=NC5(CC5)C(=O)N4CC4CN(C(=O)C5CC5)C4)c(F)c3)ccc21` [compound 521, 6-{[1-(Cyclopropylcarbonyl)azetidin-3-yl]methyl}-5-[4-(1-ethyl-1H-indazol-5-yl)-2-fluorophenyl]-4,6-diazaspiro[2.4]hept-4-en-7-one], the IC50 is more than 10000 nM with A2780 ovarian cells [1]; 603 nM in assay [2]; approximately 339 nM with A2780 ovarian cells [3]; 513 nM in assay [4]; 676 nM in assay [5]; 1910 nM in assay [6]. Besides, the inhibition at 10 µM in assay [4] amounted to 94%.

Turning to `O=C(C1CC1)N1CC(CN2C(=O)C3(CC3)N=C2c2ccc(-c3ccc4c(cnn4CC4CC4)c3)cc2F)C1` [compound 523, 6-{[1-(Cyclopropylcarbonyl)azetidin-3-yl]methyl}-5-{4-[1-(cyclopropylmethyl)-1H-indazol-5-yl]-2-fluorophenyl}-4,6-diazaspiro[2.4]hept-4-en-7-one], the IC50 was more than 10000 nM in the assay on A2780 ovarian cells [1]; 1170 nM in assay [2]; 676 nM with A2780 ovarian cells [3]; 513 nM in assay [4]; 1480 nM in assay [5]; 3240 nM in assay [6]. For the same molecule, the inhibition at 10 µM in assay [4] came out at 92%.

As to `O=C(C1CC1)N1CC(CN2C(=O)C3(CC3)N=C2c2ccc(-c3ccc(-n4ccnc4)nc3)cc2F)C1` [compound 526, 6-{[1-(Cyclopropylcarbonyl)azetidin-3-yl]methyl}-5-{2-fluoro-4-[6-(1H-imidazol-1-yl)pyridin-3-yl]phenyl}-4,6-diazaspiro[2.4]hept-4-en-7-one], the IC50 is more than 10000 nM in the assay on A2780 ovarian cells [1]; 1480 nM in assay [2]; approximately 1020 nM in the assay on A2780 ovarian cells [3]; 912 nM in assay [4]; 2190 nM in assay [5]; 5890 nM in assay [6]. Further, the inhibition at 10 µM in assay [4] was 93%.

As to `O=C(C1CC1)N1CC[C@@H](CN2C(=O)C3(CC3)N=C2c2ccc(-c3n[nH]c4ccccc34)cc2F)C1` [compound 529, 6-{[(3R)-1-(Cyclopropylcarbonyl)pyrrolidin-3-yl]methyl}-5-[2-fluoro-4-(1H-indazol-3-yl)phenyl]-4,6-diazaspiro[2.4]hept-4-en-7-one], the IC50 in the assay on A2780 ovarian cells [1] is more than 10000 nM; in assay [2], approximately 83.2 nM; with A2780 ovarian cells [3], approximately 83.2 nM; in assay [4], 102 nM; in assay [5], 155 nM; in assay [6] it was 724 nM. The inhibition at 10 µM in assay [4] stood at 96%.

Take `O=C(C1CC1)N1CC(CN2C(=O)C3(CC3)N=C2c2ccc(-c3cc4ccccc4cn3)cc2)C1` [compound 531, 6-{[1-(Cyclopropylcarbonyl)azetidin-3-yl]methyl}-5-(4-isoquinolin-3-ylphenyl)-4,6-diazaspiro[2.4]hept-4-en-7-one]: the IC50 with A2780 ovarian cells [1] was more than 10000 nM; in assay [2] it was 302 nM; in the assay with A2780 ovarian cells [3], 148 nM; in assay [4] it was 170 nM; in assay [5] it was 537 nM; in assay [6], 1350 nM. In assay [4], the inhibition at 10 µM is 96%.

Turning to `Cn1cc(-c2ccc(-c3ccc(C4=NC5(CC5)C(=O)N4CC4CN(C(=O)C5CC5)C4)cc3)nc2)cn1` [compound 534, 6-{[1-(Cycloprropylcarbonyl)azetidin-3-yl]methyl}-5-{4-[5-(1-methyl-1H-pyrazol-4-yl)pyridin-2-yl]phenyl}-4,6-diazaspiro[2.4]hept-4-en-7-one], the IC50 was more than 10000 nM with A2780 ovarian cells [1]; 1000 nM in assay [2]; 776 nM with A2780 ovarian cells [3]; 162 nM in assay [4]; 1380 nM in assay [5]; approximately 5620 nM in assay [6]. Further, the inhibition at 10 µM in assay [4] stood at 95%.

On to `O=C(C1CC1)N1CC(CN2C(=O)C3(CC3)N=C2c2ccc(-c3ccc4nn(CCO)cc4c3)cc2F)C1` [compound 536, 6-{[1-(Cyclopropylcarbonyl)azetidin-3-yl]methyl}-5-{2-fluoro-4-[2-(2-hydroxyethyl)-2H-indazol-5-yl]phenyl}-4,6-diazaspiro[2.4]hept-4-en-7-one], for which the IC50 with A2780 ovarian cells [1] was more than 10000 nM; in assay [2], approximately 3090 nM; with A2780 ovarian cells [3] it was 955 nM; in assay [4] it was 1230 nM; in assay [5] it was 3550 nM; in assay [6], approximately 7590 nM. Further, the inhibition at 10 µM in assay [4] turned out to be 88%.

With `O=C(C1CC1)N1CC(CN2C(=O)C3(CC3)N=C2c2ccc(-c3ccc(Cl)cc3F)cc2F)C1` [compound 537, 5-(4′-Chloro-2′,3-difluorobiphenyl-4-yl)-6-{[1-(cyclopropylcarbonyl)azetidin-3-yl]methyl}-4,6-diazaspiro[2.4]hept-4-en-7-one], the IC50 is more than 10000 nM in the assay on A2780 ovarian cells [1]; 617 nM in assay [2]; 263 nM with A2780 ovarian cells [3]; 174 nM in assay [4]; 427 nM in assay [5]; 1320 nM in assay [6]. The inhibition at 10 µM in assay [4] was found to be 99%.

With `Cn1ccc2ccc(-c3ccc(C4=NC5(CC5)C(=O)N4CC4CN(C(=O)C5CC5)C4)cc3)cc21` [compound 541, 6-{[1-(Cyclopropylcarbonyl)azetidin-3-yl]methyl}-5-[4-(1-methyl-1H-indol-6-yl)phenyl]-4,6-diazaspiro[2.4]hept-4-en-7-one], the IC50 in the assay on A2780 ovarian cells [1] is more than 10000 nM; in assay [2] it was 309 nM; with A2780 ovarian cells [3] it was 282 nM; in assay [4], 110 nM; in assay [5] it was 339 nM; in assay [6], approximately 1020 nM. The inhibition at 10 µM in assay [4] amounted to 100%.

For the origin of these results see US10077261B2, “Imidazolin-5-one derivative useful as FASN inhibitors for the treatment of cancer” (Janssen Pharmaceutica NV, priority 2012, dated 2018).
